Measured values published in paper PMC5441580, “GPR40 partial agonist MK-2305 lower fasting glucose in the Goto Kakizaki rat via suppression of endogenous glucose production” (PLoS ONE, 2017).
Where “and” joins values, the source holds several entries; their conditions need not be identical. Equal values may be shown once.

Key:
GK rats [1] = experiment: GK rat acute oral glucose tolerance test (OGTT) with insulin co-measurement; format: in vivo; details: GK rats, PO
Description: On the day of the study, male GK rats were bled via tail snip, and blood glucose was measured via glucometer (OneTouch Ultra, Lifescan Inc., Milpitas, CA). Fed glucose was measured at 8 A.M. (lights on 7 A.M.– 7 P.M.) and used to select and sort animals into treatment groups (n = 8/ GK group, plus n = 6/WKY control group). Animals were then placed into clean cages, and food was removed. […] Dosages from 0.3–10 mg MK-2305 / kg body weight were tested. Both the GK and WKY control groups received vehicle (0.5% methylcellulose). Blood glucose was measured again (time = 0) immediately prior to a dextrose challenge of 1 g/kg at 10 ml/kg dose volume (Dextrose, Hospira Inc., Lake Forrest IL) and then again at 20, 40, 60, and 120 min after the glucose challenge. Insulin was co-measured to test the glucose-dependent secretory response to MK-2305 delivered acutely PO. […] […] Values of percent inhibition vs. vehicle for each treatment were generated from the AUC data. Maximally efficacious dose (MED) was defined as the minimum dosage generating a maximum inhibition of glucose excursion achieved with this compound in the OGTT assay.
(§1) Plasma was analyzed for triglycerides, NEFA, and HbA1C using a P Modular Roche Clinical Chemistry analyzer. Liver triglycerides were extracted as described by Bligh and Dyer, and were measured using the Infinity triglyceride assay kit (Thermo Scientific, Rockford, IL). Plasma insulin levels were measured via EIA (Mesoscale Discovery ELISA Kit, Gaithersburg MD).

GK rats [2] = experiment: GK rat chronic efficacy, compound in feed for 20 days; format: in vivo; details: for % HBA1c / Liver Triglycerides: following 20 days of treatment in the GK rat; for % HBA1c / Liver Triglycerides / Fasted blood glucose / Fasted plasma insulin: individual animals
Description: At the start of the study, fed glucose was measured at 8 A.M., and animals were selected and sorted into treatment groups based on ambient glucose (n = 10/male GK group, n = 6/male WKY control group). […] Fed blood glucose, food intake, and body weights were determined on days 0, 1, 3, 7, and 14 of study at 8 A.M. On days 7 and 14, food was removed for 5 h and plasma glucose was measured. Percent inhibitions were calculated as the percent reduction of blood glucose from the average value for vehicle controls. On day 14, blood was collected from the tail vein (20 μl) after the morning glucose measurement and after 5 h fast from a subset of n = 3 rats per treatment group to determine the ambient and fasted exposure of the compounds in circulation. The blood was stored at 4°C in 0.1 M sodium monocitrate for subsequent analysis. Animals were then re-fed their respective diet treatments. On day 20 of treatment at 8 A.M., blood glucose was measured and then animals were euthanized via CO2 asphyxiation. Blood and liver tissue were sampled, processed, and stored at -80°C until analysis.
as §1

[3] = system: pancreatic islets of Langerhans from GPR40−/− mice; experiment: glucose stimulated insulin secretion (GSIS), isolated GPR40 KO islets; format: cell-based, mouse; details: 10 uM compound, 60 min, individual wells
Description: Pancreatic islets of Langerhans were isolated from wild-type and GPR40−/− mice (littermates) by collagenase digestion and discontinuous Ficoll gradient separation. […] Insulin secretion was determined by a 1 hr static incubation in Krebs-Ringer bicarbonate (KRB) buffer in a 96-well format as previously described. Briefly, islets were first preincubated in KRB medium with 2 mmol/l glucose for 30 min and were then transferred to a 96-well plate (three islets/well) and incubated with 200 μl of the KRB medium with 2 or 15 mmol/l glucose in the presence or absence of testing compounds for 60 min. The buffer was removed from the wells at the end of the incubation and assayed for insulin levels using the Ultrasensitive Rat Insulin ELISA kit (ALPCO, Salem, NH). All insulin secretion data were normalized by total islet numbers (ex: three islets/well), so the unit is secreted insulin (ng/ml) per islet.

Q: With `O=C1NC(=O)C(C2CCOc3cc(Oc4ccc(C(F)(F)F)cc4Cl)ccc32)S1` (stereo not drawn) [MK-2305] as the compound, how does the “MED (maximally efficacious dose) in OGTT” value (GK rats [1]) read?
A: 3 mg/kg

Q: What about the “effect on body weight” value (GK rats [2]; 10 mg/kg in feed, GK rats) of the same compound?
A: no significant effect

Q: And the “effect on food intake” value (GK rats [2]; 10 mg/kg in feed, GK rats)?
A: no significant effect

Q: What about the “effect on food intake” value (GK rats [2]; 30 mg/kg in feed, GK rats, p < 0.05) of the same compound?
A: reduction in food intake that persisted through day 14

Q: And the “effect on body weight” value (GK rats [2]; 30 mg/kg in feed, GK rats, relative to vehicle controls)?
A: did not correspond to changes in body weight

Q: And the “% HBA1c” value (GK rats [2]; 10 mpk)?
A: 4.3% and 4.6% and 4.2% and 4.4% and 4.5%

Q: What about the “Liver Triglycerides” value (GK rats [2]; 10 mpk) of the same compound?
A: 19.1 mg/g tissue and 21.7 mg/g tissue and 24.5 mg/g tissue and 22.1 mg/g tissue and 24.7 mg/g tissue and 26.9 mg/g tissue and 25.8 mg/g tissue and 22.8 mg/g tissue

Q: What about the “Morning (fed) Blood Glucose” value (GK rats [2]; 30 mpk in feed, Day 0 (start of study), individual GK rats) of the same compound?
A: 189 mg/dL and 176 mg/dL and 238 mg/dL and 199 mg/dL and 183 mg/dL and 212 mg/dL and 192 mg/dL and 274 mg/dL and 228 mg/dL

Q: And the “Morning (fed) Blood Glucose” value (GK rats [2]; 30 mpk in feed, Day 1, individual GK rats)?
A: 147 mg/dL and 165 mg/dL and 223 mg/dL and 161 mg/dL and 155 mg/dL and 192 mg/dL and 153 mg/dL and 302 mg/dL and 159 mg/dL

Q: And the “Morning (fed) Blood Glucose” value (GK rats [2]; 30 mpk in feed, Day 3, individual GK rats)?
A: 139 mg/dL and 153 mg/dL and 156 mg/dL and 150 mg/dL and 169 mg/dL and 149 mg/dL and 154 mg/dL and 218 mg/dL and 134 mg/dL

Q: And the “Morning (fed) Blood Glucose” value (GK rats [2]; 30 mpk in feed, Day 7, individual GK rats)?
A: 139 mg/dL and 153 mg/dL and 126 mg/dL and 142 mg/dL and 151 mg/dL and 181 mg/dL and 197 mg/dL and 140 mg/dL

Q: And the “Morning (fed) Blood Glucose” value (GK rats [2]; 30 mpk in feed, Day 14, individual GK rats)?
A: 141 mg/dL and 143 mg/dL and 156 mg/dL and 133 mg/dL and 132 mg/dL and 146 mg/dL and 147 mg/dL

Q: What about the “Morning (fed) Blood Glucose” value (GK rats [2]; 30 mpk in feed, Day 20, individual GK rats) of the same compound?
A: 128 mg/dL and 137 mg/dL and 159 mg/dL and 133 mg/dL and 139 mg/dL and 122 mg/dL and 126 mg/dL and 115 mg/dL and 142 mg/dL

Q: And the “% HBA1c” value (GK rats [2]; 30 mpk)?
A: 4.4% and 4.5% and 4.3%

Q: What about the “Liver Triglycerides” value (GK rats [2]; 30 mpk) of the same compound?
A: 16.7 mg/g tissue and 23.9 mg/g tissue and 28.2 mg/g tissue and 27.1 mg/g tissue and 24.5 mg/g tissue and 23 mg/g tissue and 24.3 mg/g tissue

Q: What about the Fasted blood glucose (GK rats [2]; Day 7, ~6 hrs after food removal, 30mpk, chronic study, 30 mg/kg) of the same compound?
A: 110 mg/dl (2×) and 125 mg/dl and 135 mg/dl and 103 mg/dl and 141 mg/dl and 118 mg/dl (2×) and 114 mg/dl

Q: And the Fasted plasma insulin (GK rats [2]; Day 7, 10mpk, 10 mg/kg)?
A: 405.2 pg/mL and 91.1 pg/mL and 88.1 pg/mL and 159.3 pg/mL and 284.1 pg/mL and 97.1 pg/mL and 80.9 pg/mL and 605.6 pg/mL and 106.3 pg/mL

Q: And the Fasted plasma insulin (GK rats [2]; Day 7, 30mpk, 30 mg/kg)?
A: 199.5 pg/mL and 58.7 pg/mL and 102.1 pg/mL and 88.8 pg/mL and 104.2 pg/mL and 182.8 pg/mL and 66.3 pg/mL and 259.0 pg/mL and 51.6 pg/mL

Q: What about the Fasted plasma insulin (GK rats [2]; Day 14, 10mpk, 10 mg/kg) of the same compound?
A: 66.8 pg/mL and 405.9 pg/mL and 135.1 pg/mL and 49.4 pg/mL and 1589.0 pg/mL and 353.3 pg/mL and 247.1 pg/mL and 127.3 pg/mL and 158.9 pg/mL

Q: What about the Fasted plasma insulin (GK rats [2]; Day 14, 30mpk, 30 mg/kg) of the same compound?
A: 80.8 pg/mL and 3482.1 pg/mL and 77.9 pg/mL and 794.5 pg/mL and 102.8 pg/mL and 430.5 pg/mL and 972.9 pg/mL and 1169.4 pg/mL and 1639.6 pg/mL

Q: And the “NEFA (mEq/L)” value (GK rats [2]; MK2305 @ 10, 20 days of treatment, individual GK rats)?
A: 0.23 mEq/L and 0.33 mEq/L and 0.26 mEq/L and 0.5 mEq/L and 0.19 mEq/L and 0.37 mEq/L and 0.32 mEq/L

Q: And the “NEFA (mEq/L)” value (GK rats [2]; MK2305 @ 30, 20 days of treatment, individual GK rats)?
A: 0.21 mEq/L and 0.43 mEq/L and 0.24 mEq/L and 0.45 mEq/L and 0.39 mEq/L and 0.38 mEq/L and 0.22 mEq/L and 0.34 mEq/L

Q: And the “Morning (fed) Blood Glucose” value (GK rats [2]; MK-2305 10 mpk in feed, Day 0 (start of study), individual GK rats, 10 mg/kg)?
A: 184 mg/dL and 260 mg/dL and 210 mg/dL and 227 mg/dL and 237 mg/dL and 193 mg/dL and 200 mg/dL and 191 mg/dL and 179 mg/dL

Q: What about the “Morning (fed) Blood Glucose” value (GK rats [2]; MK-2305 10 mpk in feed, Day 1, individual GK rats, 10 mg/kg) of the same compound?
A: 170 mg/dL and 247 mg/dL and 203 mg/dL and 186 mg/dL and 231 mg/dL and 179 mg/dL and 277 mg/dL and 199 mg/dL and 162 mg/dL

Q: What about the “Morning (fed) Blood Glucose” value (GK rats [2]; MK-2305 10 mpk in feed, Day 3, individual GK rats, 10 mg/kg) of the same compound?
A: 158 mg/dL and 166 mg/dL and 183 mg/dL and 172 mg/dL and 163 mg/dL and 169 mg/dL and 170 mg/dL and 167 mg/dL

Q: And the “Morning (fed) Blood Glucose” value (GK rats [2]; MK-2305 10 mpk in feed, Day 7, individual GK rats, 10 mg/kg)?
A: 150 mg/dL and 185 mg/dL and 138 mg/dL and 158 mg/dL and 179 mg/dL and 152 mg/dL and 224 mg/dL and 161 mg/dL

Q: And the “Morning (fed) Blood Glucose” value (GK rats [2]; MK-2305 10 mpk in feed, Day 14, individual GK rats, 10 mg/kg)?
A: 146 mg/dL and 143 mg/dL and 176 mg/dL and 141 mg/dL and 140 mg/dL and 169 mg/dL and 230 mg/dL

Q: What about the “Morning (fed) Blood Glucose” value (GK rats [2]; MK-2305 10 mpk in feed, Day 20, individual GK rats, 10 mg/kg) of the same compound?
A: 146 mg/dL and 140 mg/dL and 150 mg/dL and 149 mg/dL and 138 mg/dL and 145 mg/dL and 163 mg/dL and 120 mg/dL

Q: What about the “decrease in fed glucose vs. vehicle” value (GK rats [2]; day 3, 10 mg/kg in feed, GK rats, p < 0.05) of the same compound?
A: 22%

Q: And the “decrease in fed glucose vs. vehicle” value (GK rats [2]; day 3, 30 mg/kg in feed, GK rats, p < 0.05)?
A: 27%

Q: And the “reduction in fasting blood glucose vs. vehicle” value (from here on “reduction”) (GK rats [2]; day 7, 5 hr fast, 10 mg/kg in feed, GK rats)?
A: 19%

Q: And the “reduction” value (GK rats [2]; day 7, 5 hr fast, 30 mg/kg in feed, GK rats)?
A: 19%

Q: And the “reduction” value (GK rats [2]; day 14, 5 hr fast, 10 mg/kg in feed, GK rats)?
A: 26%

Q: What about the “reduction” value (GK rats [2]; day 14, 5 hr fast, 30 mg/kg in feed, GK rats) of the same compound?
A: 30%

Q: What about the “effect on circulating HbA1C levels” value (GK rats [2]; day 20, GK rats, all treatment groups) of the same compound?
A: significantly reduced

Q: And the “effect on liver triglyceride levels” value (GK rats [2]; day 20, GK rats, vs. vehicle controls)?
A: no effect

Q: What about the “effect on plasma non-esterified fatty acid (NEFA) levels” value (GK rats [2]; day 20, either dose (10, 30 mg/kg), GK rats) of the same compound?
A: no effect

Q: And the “effect on fasted plasma insulin” value (GK rats [2]; days 7 and 14, 5 hr fast, GK rats)?
A: no significant effects

Q: What about the Fasted blood glucose (GK rats [2]; second block of the table (day 14 per title), 10mpk, 10 mg/kg) of the same compound?
A: 151 mg/dL and 95 mg/dL and 111 mg/dL and 128 mg/dL and 118 mg/dL and 120 mg/dL and 116 mg/dL and 138 mg/dL and 117 mg/dL

Q: And the Fasted blood glucose (GK rats [2]; second block of the table (day 14 per title), 30mpk, 30 mg/kg)?
A: 112 mg/dl and 113 mg/dl and 108 mg/dl and 115 mg/dl (2×) and 126 mg/dl and 105 mg/dl and 123 mg/dl and 119 mg/dl

Q: And the “secreted insulin per islet” value ([3]; 2mM glucose)?
A: 0.3958 ng/ml per islet and 0.3056 ng/ml per islet and 0.5799 ng/ml per islet and 0.6404 ng/ml per islet and 0.5029 ng/ml per islet and 1.032 ng/ml per islet and 0.612 ng/ml per islet and 0.7615 ng/ml per islet

Q: What about the “secreted insulin per islet” value ([3]; 15 mM Glucose) of the same compound?
A: 2.615 ng/ml per islet and 3.66 ng/ml per islet and 2.83 ng/ml per islet and 4.29 ng/ml per islet and 3.64 ng/ml per islet and 2.75 ng/ml per islet and 4.57 ng/ml per islet and 4.28 ng/ml per islet
